Measurements: PubChem BioAssay (NCI)
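A five-concentration, 48-hour dose response in 96-well plates underlies each endpoint, interpolated linearly between surrounding concentrations. TGI: concentration producing complete growth inhibition.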

Key:
Test in all cases: NCI-60 cell line screen, 48 h
[1] = test system: COLO 205 colon
[2] = test system: T-47D breast
[3] = test system: HCT-15 colon
[4] = test system: NCI-H522 lung
[5] = test system: OVCAR-8 ovarian
[6] = test system: M14 melanoma
[7] = test system: KM12 colon
[8] = test system: UACC-62 melanoma
[9] = test system: MDA-N
[10] = test system: DU-145 prostate
[11] = test system: SN12C renal
[12] = test system: UO-31 renal
[13] = test system: SF-268 CNS
[14] = test system: U251 CNS
[15] = test system: SK-MEL-2 melanoma
[16] = test system: NCI-H460 lung
[17] = test system: UACC-257 melanoma
[18] = test system: SK-OV-3 ovarian
[19] = test system: OVCAR-4 ovarian
[20] = test system: EKVX NSCLC
[21] = test system: MDA-MB-231 breast
[22] = test system: CCRF-CEM leukemia
[23] = test system: HCT-116 colon
[24] = test system: MCF7 breast
[25] = test system: MDA-MB-435
[26] = test system: SF-295 CNS
[27] = test system: MOLT-4 leukemia
[28] = test system: SNB-75 CNS
[29] = test system: TK-10 renal
[30] = test system: A549 NSCLC
[31] = test system: HT29 colon
[32] = test system: CAKI-1 renal
[33] = test system: HL-60(TB) leukemia
[34] = test system: SW-620 colon
[35] = test system: PC-3 prostate
[36] = test system: OVCAR-5 ovarian
[37] = test system: RXF 393 renal
[38] = test system: SNB-19 CNS
[39] = test system: NCI-H23 lung
[40] = test system: SK-MEL-28 melanoma
[41] = test system: BT-549 breast
[42] = test system: HS 578T breast
[43] = test system: SR leukemia
[44] = test system: ACHN renal
[45] = test system: NCI/ADR-RES ovarian
[46] = test system: HCC-2998 colon
[47] = test system: IGROV1 ovarian
[48] = test system: SK-MEL-5 melanoma
[49] = test system: HOP-92 NSCLC
[50] = test system: SF-539 CNS
[51] = test system: OVCAR-3 ovarian
[52] = test system: LOX IMVI melanoma
[53] = test system: RPMI-8226 leukemia
[54] = test system: K-562 leukemia
[55] = test system: NCI-H226 lung
[56] = test system: 786-0 renal
[57] = test system: MALME-3M melanoma
[58] = test system: HOP-62 NSCLC

Measured: TGI

CCC(=O)NC(Nc1ccccc1F)(C(F)(F)F)C(F)(F)F
> 100 µM: [1] | [2] | [3] | [4] | [5] | [6] | [7] | [8] | [9] | [10] | [11] | [12] | [13] | [14] | [15] | [16] | [17] | [18] | [19] | [20] | [21] | [22] | [23] | [24] | [25] | [26] | [27] | [28] | [29] | [30] | [31] | [32] | [33] | [34] | [35] | [36] | [37] | [38] | [39] | [40] | [41] | [42] | [43] | [44] | [45] | [46] | [47] | [48] | [49] | [50] | [51] | [52] | [53] | [54]

CCOP(=O)(OCC)C(C)(CC)NC1=NC(C(F)(F)F)(C(F)(F)F)NC(=O)N1 (stereo unspecified)
> 100 µM: [1] | [2] | [3] | [5] | [6] | [7] | [8] | [9] | [10] | [11] | [12] | [13] | [14] | [55] | [15] | [16] | [17] | [18] | [19] | [20] | [21] | [22] | [23] | [56] | [24] | [25] | [26] | [27] | [28] | [29] | [30] | [31] | [57] | [32] | [33] | [34] | [58] | [35] | [36] | [37] | [38] | [39] | [40] | [41] | [42] | [43] | [44] | [45] | [46] | [47] | [48] | [49] | [50] | [51] | [52] | [53] | [54]
